Results taken from the supplement of paper PMC11061612.

What was measured:
Assay in all cases: combination Emax (second highest fraction inhibited in the dose matrix, 72 h); higher = more inhibition; extreme values may be limits of the assay
[1] = test system: OVCAR-8 (Ovarian Carcinoma)
Procedure, shortened: (§1)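 After 24 hours at 37°C and 5% CO2 in 1536-well plates, cells in DMEM/F12 or RPMI plus 10% FBS received two-drug dose matrices for 72 hours. Viability came from CellTiter-Glo 2.0 luminescence and was scaled as inhibition, anchored at 0 by vehicle wells and at 1 by blank wells. Combination Emax is taken as the second-highest inhibition in the matrix, and Bliss excess as the observed combination effect less EA + EB − EA·EB, with EA and EB the single-agent effects.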

[2] = test system: NCI-H28 (Mesothelioma)
Procedure, shortened: as §1

[3] = test system: SW626 (Colorectal Carcinoma)
Procedure, shortened: as §1

[4] = test system: MDA-MB-468 (Breast Carcinoma)
Procedure, shortened: as §1

[5] = test system: HO-1-u-1 (Oral Cavity Carcinoma)
Procedure, shortened: as §1

[6] = test system: SW1116 (Colorectal Carcinoma)
Procedure, shortened: as §1

[7] = test system: NCI-H2795 (Mesothelioma)
Procedure, shortened: as §1

[8] = test system: NB14 (Neuroblastoma)
Procedure, shortened: as §1

[9] = test system: CTB-1 (B-Cell Non-Hodgkin's Lymphoma)
Procedure, shortened: as §1

[10] = test system: K5 (Thyroid Gland Carcinoma)
Procedure, shortened: as §1

[11] = test system: 639-V (Bladder Carcinoma)
Procedure, shortened: as §1

[12] = test system: HARA (Squamous Cell Lung Carcinoma)
Procedure, shortened: as §1

[13] = test system: LB771-HNC (Head and Neck Carcinoma)
Procedure, shortened: as §1

[14] = test system: CAL-54 (Kidney Carcinoma)
Procedure, shortened: as §1

[15] = test system: SW1271 (Small Cell Lung Carcinoma)
Procedure, shortened: as §1

[16] = test system: PCI-30 (Head and Neck Carcinoma)
Procedure, shortened: as §1

[17] = test system: MHH-PREB-1 (B-Cell Non-Hodgkin's Lymphoma)
Procedure, shortened: as §1

[18] = test system: KYSE-410 (Esophageal Squamous Cell Carcinoma)
Procedure, shortened: as §1

[19] = test system: 8305C (Thyroid Gland Carcinoma)
Procedure, shortened: as §1

[20] = test system: LU-139 (Small Cell Lung Carcinoma)
Procedure, shortened: as §1

SMILES	combination Emax [1]	combination Emax [2]	combination Emax [3]	combination Emax [4]	combination Emax [5]	combination Emax [6]	combination Emax [7]	combination Emax [8]	combination Emax [9]	combination Emax [10]	combination Emax [11]	combination Emax [12]	combination Emax [13]	combination Emax [14]	combination Emax [15]	combination Emax [16]	combination Emax [17]	combination Emax [18]	combination Emax [19]	combination Emax [20]
Cc1c2c(nn1C)CSCc1cc(n(C)n1)CSc1cc(c3ccccc3c1)OCCCc1c(C(=O)O)n(C)c3c-2c(Cl)ccc13 [AZD5991] + C[C@@H]1COCCN1C2=NC(=NC(=C2)C3(CC3)[S@](=N)(=O)C)C4=C5C=CNC5=NC=C4 [AZD6738] (first compound max 1 µM, 7x7, partner max 10 µM)	0.783	0.533	0.632	0.768	0.844	0.281	0.939	0.989	0.785	0.574	0.452	0.776	0.806	0.706	0.604	0.603	0.729	0.403	0.593	0.446
CN(CCO)CC[C@H](CSc1ccccc1)Nc1ccc(S(=O)(=O)NC(=O)c2ccc(N3CCC([C@@H](O)c4ccccc4-c4ccc(Cl)cc4)CC3)cc2)cc1S(=O)(=O)C(F)(F)F [AZD4320] + C[C@@H]1COCCN1C2=NC(=NC(=C2)C3(CC3)[S@](=N)(=O)C)C4=C5C=CNC5=NC=C4 [AZD6738] (first compound max 1 µM, 7x7, partner max 10 µM)	0.796	0.668	0.869	0.842	0.926	0.375	0.844	1	0.768	0.702	0.665	0.884	0.6	0.835	0.733	0.653	0.754	0.421	0.834	0.929
CN(C)CCCOc1ccc(-c2ccc3ncc4c(c3c2)n(C2CCOCC2)c(=O)n4C)cn1 [AZD0156] + C[C@@H]1COCCN1C2=NC(=NC(=C2)C3(CC3)[S@](=N)(=O)C)C4=C5C=CNC5=NC=C4 [AZD6738] (first compound max 1 µM, 7x7, partner max 10 µM)	0.88	0.452	0.566	0.527	0.943	0.28	0.7	0.979	0.829	0.753	0.35	0.908	0.48	0.65	0.595	0.659	0.909	0.297	0.506	0.278
CC(=O)Nc1cccc(-n2c(=O)n(C3CC3)c(=O)c3c(Nc4ccc(I)cc4F)n(C)c(=O)c(C)c32)c1 [Trametinib] + Cc1nc(-c2cn3c(n2)-c2ccc(-c4cnn(C(C)(C)C(N)=O)c4)cc2OCC3)n(C(C)C)n1 [Taselisib] (first compound max 1 µM, 7x7, partner max 10 µM)	0.594	0.632	0.75	0.799	0.987	0.866	1	0.822	0.416	1	0.718	0.818	0.895	0.763	0.653	0.627	0.271	0.993	0.945	0.143
CC1(C)CCC(CN2CCN(c3ccc(C(=O)NS(=O)(=O)c4ccc(NCC5CCOCC5)c([N+](=O)[O-])c4)c(Oc4cnc5[nH]ccc5c4)c3)CC2)=C(c2ccc(Cl)cc2)C1 [Venetoclax] + C1CN(CCC1(C(=O)N[C@@H](CCO)C2=CC=C(C=C2)Cl)N)C3=NC=NC4=C3C=CN4 [Capivasertib] (first compound max 1 µM, 7x7, partner max 3 µM)	0.184	0.216	0.161	0.511	0.719	0.0942	0.375	0.95	0.429	0.546	0.283	0.645	0.248	0.325	0.262	0.252	0.176	0.203	0.387	0.31
CCc1c2c(nc3ccc(O)cc13)-c1cc3c(c(=O)n1C2)COC(=O)[C@]3(O)CC [SN-38] + CN(C)CCCOc1ccc(-c2ccc3ncc4c(c3c2)n(C2CCOCC2)c(=O)n4C)cn1 [AZD0156] (first compound max 0.3 µM, 7x7, partner max 1 µM)	0.849	0.307	0.428	0.735	0.676	0.199	0.808	0.918	0.859	0.512	1	0.768	0.0261	0.925	0.707	0.692	0.701	0.254	0.572	0.627
